In the SangsterLogP compilation:

Row | SMILES | logP
1 | CC(=O)OCC1=C(C(=O)O)N2C(=O)C(NC(=O)Cc3ccc(-c4ccc(Cl)cc4)o3)C2SC1 (centres undefined) | 2.76
2 | CC1=C(C(=O)O)N2C(=O)C(NC(=O)Cc3ccco3)C2SC1 (centres undefined) | -0.13
3 | CC(=O)OCC1=C(C(=O)O)N2C(=O)C(NC(=O)Cc3ccco3)C2SC1 (centres undefined) | 0.09
4 | CC(=O)OCC1=C(C(=O)O)N2C(=O)C(NC(=O)Cc3ccc(-c4ccccc4Cl)o3)C2SC1 (centres undefined) | 2.42
5 | CC(=O)OCC1=C(C(=O)O)N2C(=O)C(NC(=O)Cc3ccc([N+](=O)[O-])o3)C2SC1 (centres undefined) | 0.72

Now from value to compound:

Row | logP | SMILES
6 | 2.38 | CC1=C(C(=O)O)N2C(=O)C(NC(=O)Cc3ccc(-c4ccc(Cl)cc4)o3)C2SC1 (centres undefined)
7 | 2.78 | CC(=O)OCC1=C(C(=O)O)N2C(=O)C(NC(=O)Cc3ccc(-c4c(Cl)cccc4Cl)o3)C2SC1 (centres undefined)
8 | 1.66 | CC1=C(C(=O)O)N2C(=O)C(NC(=O)Cc3ccc(-c4ccccc4)o3)C2SC1 (centres undefined)
9 | 3.6 | CC1=C(C(=O)O)N2C(=O)C(NC(=O)Cc3ccc(-c4c(Cl)cccc4Cl)o3)C2SC1 (centres undefined)
